Earlier results as cited in patent US7550449B2, “Carba cyclic phosphatidic acid derivative” (priority 2002, dated 2009).

Legend:
MM1 cells = conditions: within several minutes of addition, effect not lost with LPA, literature
[1] = test system: human fibrosarcoma cells (HT-1080); conditions: cells require neither serum nor LPA for invasion; literature
Rho = conditions: literature (Mukai et al. 2000)
[2] = test system: MM1 cells, highly invasive clones of a rat ascites hepatoma cell line (AH-130); conditions: literature (Mukai et al. 1999)

What does the source list for `CCCCCCCCCCCCCCCC(=O)OCC1COP(=O)(O)O1` (stereo not shown) [Pal-cPA]?
intracellular cAMP concentration (MM1 cells): elevated; suppression of invasion of HT-1080 cells [1]: significantly suppressed; LPA-mediated Rho activation (Rho): inhibited; invasion suppressing activity among cPA derivatives with different fatty acids at sn-1 [2]: strongest invasion suppressing activity
